Legend:
[1] = tested on: primary culture of human dermal fibroblasts (DF); assay: MTS cell viability assay, dermal fibroblasts
Experimental: As a next step, we used MTS assay[27] to examine the effect of GO peptides on the viability of the four described cell cultures as a function of different treatment schemes. […] This treatment regimen is labeled 4 × 5 underneath the graph. Alternatively, we introduced 5 μM of peptide daily while exchanging the medium (denoted 4/5). Unlike the previous protocol, it avoids potential build-up of the peptide in the medium.
The treatment protocols are: 4 × 5 – four daily doses of 5 μM delivered without exchanging the growth medium; 4/5 – four daily doses of 5 μM delivered with exchanged growth medium; 1 × 5, 1 × 10, 1 × 15, and 1 × 20 – a single dose of 5, 10, 15, or 20 μM, respectively. MTS reagent was added to the wells 96 h after the first (and sometimes the only) application of the peptide and the optical density at 492 nm was measured to determine the fraction of the surviving cells.
As a next step, we set out to test the cytotoxic effect of these peptides on the normal cells.
Cell survival was measured using CellTiter 96 AQueous One Solution Cell Proliferation Assay (MTS test, Promega, USA). Cells have been seeded in a 96-well flat-bottom plate in 100 μl of culture medium (10^3 cells/well for A549, HT-1080, dermal fibroblasts and eMSC or 5 × 10^3 cells/well for ZR-75-1) and allowed to attach for 24 h. The starting amount of cells was chosen to account for their growth rate and degree of spreading such as to avoid excessive dilution in the beginning of the experiment or control cell overgrowth toward the end. After 24 h, 10 μl of peptide stock solution or PBS (control) were added to the wells. After 96 h, 20 μl of the MTS-reagent were added to each well and 1–2 h later optical density was measured at the wavelength 492 nm using the 96-well plate reader (Titertek Multiskan, Labsystems, Finland). All experiments were conducted in duplicate or triplicate.

[2] = tested on: human lung carcinoma cell line A549; assay: MTS cell viability assay, A549; type: cell-based
Experimental: All experiments were conducted in duplicate or triplicate.

HT-1080 cells [3] = assay: Time-lapse microscopy and side angle light scatter, HT-1080; type: cell-based, human
Experimental: The data from time-lapse microscopy on HT-1080 cells provide a visual evidence of GO-203-induced apoptosis, Fig. 5 (see also Film S1). […] After 1.5 h we observe the fully developed picture of apoptosis. This is illustrated in the right panel of Fig. 5: three cells in this photograph experience blebbing, while the fourth cell located in the upper right portion of the image has undergone detachment and rounded up (it is soon to enter the blebbing phase). This time line is confirmed by the side angle light scatter data from the flow-cytometry experiment, Fig. 6C. […] This behavior reflects the onset of dynamic blebbing and the concomitant increase in the roughness of the cell surface. In this context it is worth noting that actomyosin cortex contraction and blebbing are subsequent to (and in fact driven by) caspase activation. The condensation of nucleus and cytoplasm in apoptotic cells can also contribute to the increased side scatter.
Figure 5 Time-lapse microscopy of HT-1080 cells. (A) Cells before the addition of the peptide and (B) 1 h 20 min after the addition of 5 μM GO-203.
Figure 6 Dynamics of (A) mitochondrial membrane potential, (B) intracellular ROS levels, and (C) cell refractive properties in suspended HT-1080 cells following the addition of 5 μM GO-203.
(§1) The cells were seeded into 35-mm Nunc culture dishes (Thermo Scientific, USA) at 1.2 × 10^5 cells per dish and allowed to attach for 24 h. To monitor intracellular ROS in a time-dependent manner, the cells were incubated for 30 min with 10 μM of carboxy-H2DCFDA (Invitrogen, USA), then harvested with trypsin-EDTA and suspended in a fresh medium. After that GO-203 was added directly to the suspension and cell fluorescence was measured by flow cytometry at multiple time points during the following 2 hours. The same procedure was used for mitochondria-specific fluorescent dye Rhodamine 123 (Thermo Fisher Scientific, USA), which was added to a concentration of 5 μM. The complementary side scatter measurements were conducted using 488 nm laser light. In another series of experiments, we have used the related indicator of oxidative stress, H2DCFDA (Invitrogen, USA). The experiment started by adding GO-203 to the cell growth medium; then 10 min later 5 μM of H2DCFDA has been added. After 20 min incubations with H2DCFDA, the cells were harvested with trypsin-EDTA and suspended in a fresh medium. Cell fluorescence was then immediately measured by flow cytometry. The same procedure was followed for the ROS-insensitive (control) modification of the fluorescent probe, DCFDA.
For live cell microscopy, HT-1080 cells were seeded into 35-mm сell imaging dish with cover glass bottom (Eppendorf, Germany) and allowed to attach for 24 h. The cell response to 5 μM GO-203 exposure was monitored using the Axio Observer. […]

ZR-75-1 cell line = assay: H2DCFDA intracellular ROS measurement, ZR-75-1; type: cell-based, human; conditions: 10 μM, 30 min incubation, control 100 ± 11, mean and SD, below statistical significance
Experimental: (§2) Having established these premises, we repeated the measurements using the ROS-sensitive probe H2DCFDA instead of DCFDA. We have observed small, but statistically significant difference between the HT-1080 cells treated by GO-203 and control cells. Specifically, 30 min after application of the peptide the fluorescence signal from the treated cells was ca. 20% lower than the control, 82 ± 6 vs. 100 ± 7 (arbitrary units). The drop in fluorescence from cells that have been treated with GO-203 should be unequivocally attributed to the decreased level of ROS. The effect is small and unlikely to be the source of GO-203 cytotoxic activity. […] The detected drop in ROS level was below the level of statistical significance, 98 ± 3 vs. 100 ± 11 (see Fig. S3). […]
(§3) The cells were seeded into 35-mm Nunc culture dishes (Thermo Scientific, USA) at 1.2 × 10^5 cells per dish and allowed to attach for 24 h. […] After that GO-203 was added directly to the suspension and cell fluorescence was measured by flow cytometry at multiple time points during the following 2 hours. […] Cell fluorescence was then immediately measured by flow cytometry. […]
(§4) Cell fluorescence was measured using CytoFLEX (Beckman Coulter, USA) flow cytometer equipped with 3 lasers (405, 488 and 633 nm). […] Mean fluorescence intensity from 10,000 cells was acquired. […]

ZR-75-1 = assay: Rhodamine 123 mitochondrial membrane potential, ZR-75-1; type: cell-based, human; conditions: 30 min after application, same scheme as H2DCFDA/DCFDA measurements
Experimental: Finally, the same experimental scheme as described above for H2DCFDA/DCFDA measurements was also used with Rhodamine 123. […] The same observation has been made for ZR-75-1.
as §1, with “The same procedure was followed for the ROS-insensitive (control) modification of the fluorescent probe, DCFDA.” left out

HT-1080 cells [4] = assay: H2DCFDA intracellular ROS measurement, HT-1080; type: cell-based, human; conditions: 5 μM, 30 min after application
Experimental: as §2, §3, §4

[5] = HT-1080, 5 μM, time-lapse microscopy

## [R]9CQCRRKN [GO-203, in clinical trials]
[1]; dermal fibroblasts, 1 × 5: single dose of 5 μM, 96 h
  Cell viability (MTS): essentially inconsequential
[1]; dermal fibroblasts, 4/5: four daily doses of 5 μM with exchanged growth medium, 96 h
  Cell viability (MTS): inefficient
[1]; dermal fibroblasts, 4 × 5: four daily doses of 5 μM without exchanging growth medium, OD 492 nm 96 h after first application
  Cell viability (MTS): essentially complete cell death
[1]; skin (dermal) fibroblasts, 1 × 10: single dose of 10 μM, 96 h
  Cell viability (MTS): nearly wipes out
[2]; 1 × 5: single dose of 5 μM, 96 h
  Cell viability (MTS): essentially inconsequential
[2]; 1 × 20: single dose of 20 μM, 96 h
  Cell viability (MTS): substantially cytotoxic
[2]; 4/5: four daily doses of 5 μM with exchanged growth medium, 96 h
  Cell viability (MTS): inefficient
[2]; 4 × 5: four daily doses of 5 μM without exchanging growth medium, OD 492 nm 96 h after first application
  Cell viability (MTS): considerable damage
HT-1080 cells [3]; [5]
  Time to fully developed picture of apoptosis: 1.5 h
  Time to morphological features of apoptosis (cell contraction, membrane blebbing): within the first hour
HT-1080 cells [3]; suspended HT-1080 cells, 5 μM, flow cytometry, 488 nm
  Time at which side angle light scatter starts to rise versus control: 30 min
HT-1080 cells [3]; treated cells, summary statement
  Onset of apoptosis after application: ca. 30 min
ZR-75-1 cell line
  H2DCFDA fluorescence signal (ROS level): 98 ± 3 arbitrary units
ZR-75-1
  Mitochondrial membrane potential (Rhodamine 123): fully maintained
HT-1080 cells [4]
  Decrease of H2DCFDA fluorescence signal versus control: ca. 20%
HT-1080 cells [4]; control 100 ± 7, mean and SD
  H2DCFDA fluorescence signal (ROS level): 82 ± 6 arbitrary units
